Data set [1] addresses Luciferin 4-monooxygenase (Photinus pyralis, UniProt P08659). The data set can be described thus: inhibition of purified Photinus pyralis luciferase – biochemical, luminescence, dose response (AID 1891).
Data set [2] can be described thus: Luminescence Cell-Based Dose Confirmation HTS to Identify Inhibitors of Platelet Dense Granule Release. [Related pubchem assays: 1663 (Primary HTS), 1678 (Summary of Project)]. The data set is classed as functional.
For data set [3], the target named is T1, Rac GTPase-activating protein 1 (Homo sapiens, UniProt Q9H0H5).
T1 sequence (Q9H0H5 whole entry): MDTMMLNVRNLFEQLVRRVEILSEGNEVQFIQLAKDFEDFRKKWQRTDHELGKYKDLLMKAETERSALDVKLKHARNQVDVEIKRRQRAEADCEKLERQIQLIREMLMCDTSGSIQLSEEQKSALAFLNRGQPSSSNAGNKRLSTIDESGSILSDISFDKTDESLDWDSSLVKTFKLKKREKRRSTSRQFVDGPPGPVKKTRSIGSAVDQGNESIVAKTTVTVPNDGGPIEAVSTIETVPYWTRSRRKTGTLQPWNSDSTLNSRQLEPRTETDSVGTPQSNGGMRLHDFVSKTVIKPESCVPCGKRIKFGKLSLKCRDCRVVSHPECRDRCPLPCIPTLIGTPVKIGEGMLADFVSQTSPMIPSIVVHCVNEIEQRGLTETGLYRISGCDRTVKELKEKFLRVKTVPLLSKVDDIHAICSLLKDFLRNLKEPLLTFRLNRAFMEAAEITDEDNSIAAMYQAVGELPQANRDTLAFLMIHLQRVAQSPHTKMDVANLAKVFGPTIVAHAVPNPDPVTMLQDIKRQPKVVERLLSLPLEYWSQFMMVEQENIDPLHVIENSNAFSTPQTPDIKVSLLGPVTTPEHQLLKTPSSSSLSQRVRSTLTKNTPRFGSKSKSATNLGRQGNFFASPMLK
Briefly: blockers of MgcRacGAP-driven Rac1 GTP hydrolysis – biochemical, ADP Hunter fluorescence, primary and confirmatory, confirmation (AID 624330). It counts as functional.

Data set [4] addresses Large T antigen (Simian virus 40, UniProt P03070). The data set is classed as functional, Betapolyomavirus macacae.
The target of data set [5] is T2, Short transient receptor potential channel 4 (Mus musculus, UniProt Q9QUQ5).
T2 sequence (Q9QUQ5 whole entry): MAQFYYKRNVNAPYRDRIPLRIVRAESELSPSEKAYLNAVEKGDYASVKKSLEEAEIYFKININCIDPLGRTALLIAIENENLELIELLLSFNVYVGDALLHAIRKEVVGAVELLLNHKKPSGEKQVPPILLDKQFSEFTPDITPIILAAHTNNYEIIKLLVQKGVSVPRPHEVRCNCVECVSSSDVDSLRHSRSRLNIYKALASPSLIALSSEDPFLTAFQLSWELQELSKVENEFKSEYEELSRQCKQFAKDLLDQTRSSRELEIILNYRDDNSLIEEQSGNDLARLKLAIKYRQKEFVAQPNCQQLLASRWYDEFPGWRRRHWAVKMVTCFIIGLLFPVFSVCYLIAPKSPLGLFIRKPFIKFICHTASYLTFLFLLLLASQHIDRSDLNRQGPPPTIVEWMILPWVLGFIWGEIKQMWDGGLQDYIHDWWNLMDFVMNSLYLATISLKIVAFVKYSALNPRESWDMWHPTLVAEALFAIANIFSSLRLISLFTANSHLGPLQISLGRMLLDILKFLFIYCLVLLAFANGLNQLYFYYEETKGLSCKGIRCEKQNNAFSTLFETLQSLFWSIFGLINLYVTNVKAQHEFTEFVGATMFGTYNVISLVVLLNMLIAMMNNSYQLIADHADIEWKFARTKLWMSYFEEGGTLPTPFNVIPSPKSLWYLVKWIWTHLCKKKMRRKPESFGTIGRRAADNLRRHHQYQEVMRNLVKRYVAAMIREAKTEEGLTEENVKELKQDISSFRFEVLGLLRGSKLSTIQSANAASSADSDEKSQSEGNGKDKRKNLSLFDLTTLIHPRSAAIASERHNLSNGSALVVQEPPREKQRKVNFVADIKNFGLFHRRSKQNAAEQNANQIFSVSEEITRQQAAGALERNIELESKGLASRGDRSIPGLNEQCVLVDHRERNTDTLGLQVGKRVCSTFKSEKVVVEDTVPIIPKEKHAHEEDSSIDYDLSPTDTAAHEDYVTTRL
The data set can be described thus: calcium entry via TRPC4 opening agents – cell-based, HEK293 TRPC4/mu-opioid, Fluo-4 calcium, dose response (AID 434937). It counts as functional.

Data set [6] deals with Cytochrome P450 2C9 (Homo sapiens, UniProt P11712).
Data set [7] has as its target Glyceraldehyde-3-phosphate dehydrogenase (Homo sapiens, UniProt P04406).
The target of data set [8] is Cytochrome P450 3A4 (Homo sapiens, UniProt P08684).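 Further: CYP3A4 tested as one member of a cytochrome P450 panel screen.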
Data set [9] has as its target T3, Cytochrome P450 1A2 (Homo sapiens, UniProt P05177).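 Further: PubChem cytochrome P450 panel assay, CYP1A2 panel member.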
T3 sequence (P05177 whole entry): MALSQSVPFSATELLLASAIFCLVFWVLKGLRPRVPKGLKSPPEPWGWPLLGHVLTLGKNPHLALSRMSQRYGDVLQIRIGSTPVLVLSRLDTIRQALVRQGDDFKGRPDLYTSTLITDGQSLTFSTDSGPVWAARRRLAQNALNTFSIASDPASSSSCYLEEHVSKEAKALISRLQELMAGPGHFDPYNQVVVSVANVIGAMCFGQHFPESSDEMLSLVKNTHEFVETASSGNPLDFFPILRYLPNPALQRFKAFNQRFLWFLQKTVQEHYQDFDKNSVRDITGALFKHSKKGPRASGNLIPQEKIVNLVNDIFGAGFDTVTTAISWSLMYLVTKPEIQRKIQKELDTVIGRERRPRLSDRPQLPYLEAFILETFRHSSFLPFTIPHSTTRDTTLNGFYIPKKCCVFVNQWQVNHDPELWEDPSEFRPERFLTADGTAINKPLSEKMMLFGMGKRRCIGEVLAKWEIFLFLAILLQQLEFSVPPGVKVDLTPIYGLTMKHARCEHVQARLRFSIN

The target in data set [10] is T4, Microphthalmia-associated transcription factor (Homo sapiens, UniProt O75030).
T4 sequence (O75030 whole entry): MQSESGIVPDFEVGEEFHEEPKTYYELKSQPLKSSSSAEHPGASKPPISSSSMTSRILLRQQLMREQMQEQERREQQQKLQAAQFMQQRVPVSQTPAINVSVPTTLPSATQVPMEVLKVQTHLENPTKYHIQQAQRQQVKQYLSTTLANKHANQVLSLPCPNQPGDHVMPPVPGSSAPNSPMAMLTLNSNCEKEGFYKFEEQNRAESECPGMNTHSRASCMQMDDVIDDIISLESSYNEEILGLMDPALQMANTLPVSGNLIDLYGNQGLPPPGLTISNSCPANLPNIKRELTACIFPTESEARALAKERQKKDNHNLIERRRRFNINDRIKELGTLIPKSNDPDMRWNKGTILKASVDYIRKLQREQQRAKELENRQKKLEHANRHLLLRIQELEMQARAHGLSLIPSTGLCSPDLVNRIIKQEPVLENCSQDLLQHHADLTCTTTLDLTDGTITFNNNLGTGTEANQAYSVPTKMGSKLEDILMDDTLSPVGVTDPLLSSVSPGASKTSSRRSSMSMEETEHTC
Briefly: reducers of TRPM1 reporter luminescence, concentration series – cell-based, SK-MEL-5, cherry-picked, set 3, MITF inhibitor project, dose response (AID 493073).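 Further: SK-MEL-5 melanoma cells with luciferase driven by the MITF target TRPM1 promoter.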 The data set is classed as functional.

Data set [11] is described as follows: NIH-3T3 fibroblast cytotoxicity, dose response, cytotoxicity control, cell-based, fluorescence, Alamar Blue, secondary assay (AID 2327).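 Further: NIH-3T3 mouse fibroblasts cultured with fluconazole at 8 µg/mL.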 It counts as functional.
The nature of data set [12]: fluconazole-exposed Candida albicans growth modulators – fluorescence, retest, confirmation (AID 2467). The data set is classed as functional, cell-based.
Data set [13] in a line: viability of PTEN-deleted HCT116 cells – cell-based, HCT116 PTEN knockout, dose response (AID 1047).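 Further: HCT116 colon tumor cells with PTEN knocked out; cells exposed to compound for 60 hours before readout; potency for loss of cell viability measured by luminescence.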 The data set is classed as functional.
Data set [14] has as its system INS1. Briefly: INS-1E survival protection against cytokine death – cell-based, luminescence, retest, dose response (AID 449756).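 Further: cell death triggered by IL-1 beta plus TNF-alpha plus IFN-gamma mixture; protective hits raise ATP signal compared with cytokine alone wells.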 It counts as functional. The note with it: Rattus norvegicus.
Data set [15] can be described thus: viability of HCT116 lacking mutant beta-catenin – cell-based, human colon tumor, dose response (AID 1045).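 Further: HCT116 colon tumor cells with beta catenin knocked out; cells exposed to compound for 60 hours.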 It counts as functional.
Data set [16] in a line: Luminescence Cell-Based Dose Response HTS to Identify Inhibitors of 5'UTR Stem-Loop Driven Prion Protein mRNA Translation in H4 Neuroglioblastoma Cells. [Related pubchem assays: 1827 (Project Summary), 1813 (Primary HTS)]. The data set is classed as functional.
A short description of data set [17]: alpha-synuclein stem-loop luciferase translation blockers – H4 neuroglioma cells, luminescence, confirmation (AID 1988). It counts as functional, cell-based.
Data set [18] can be described thus: luciferase reporter signal suppression in cells – H4 neuroglioma cells, luminescence, dose response (AID 1990). It counts as functional, cell-based. In general terms: A reporter such as luciferase makes a cellular process visible.
Data set [19] deals with BJ. The data set can be described thus: cells. The data set is classed as functional, cell-based. The settings on record: Homo sapiens.
For data set [20], the system named is BJ. Briefly: BJ-TERT fibroblast viability loss – cell-based, RAS-independent, luminescence, dose response (AID 1933). It counts as functional. The note with it: Homo sapiens.
A short description of data set [21]: DRD fibroblast viability loss – cell-based, non-viral oncogenic, luminescence, dose response (AID 1934). It counts as functional. The settings on record: Homo sapiens.
Data set [22] relates to BJ. The data set can be described thus: BJ-TERT-LT-ST fibroblast viability loss – cell-based, RAS-independent, luminescence, dose response (AID 1935).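 Further: BJ fibroblasts immortalized with TERT plus LT and ST oncogenes.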 The data set is classed as functional. The note with it: Homo sapiens.

Calls of active or inactive are those of the source.

From ChEMBL document CHEMBL1201862, “PubChem BioAssay data set” (2004) come the findings set out here.

What is called EC50 is the concentration that produces a half-maximal response. As usually defined, the IC50 is the concentration at which inhibition is half-maximal. A word on the AC50: it is the concentration giving half of the maximal activity seen.

Chain of Large T antigen (P03070 whole entry): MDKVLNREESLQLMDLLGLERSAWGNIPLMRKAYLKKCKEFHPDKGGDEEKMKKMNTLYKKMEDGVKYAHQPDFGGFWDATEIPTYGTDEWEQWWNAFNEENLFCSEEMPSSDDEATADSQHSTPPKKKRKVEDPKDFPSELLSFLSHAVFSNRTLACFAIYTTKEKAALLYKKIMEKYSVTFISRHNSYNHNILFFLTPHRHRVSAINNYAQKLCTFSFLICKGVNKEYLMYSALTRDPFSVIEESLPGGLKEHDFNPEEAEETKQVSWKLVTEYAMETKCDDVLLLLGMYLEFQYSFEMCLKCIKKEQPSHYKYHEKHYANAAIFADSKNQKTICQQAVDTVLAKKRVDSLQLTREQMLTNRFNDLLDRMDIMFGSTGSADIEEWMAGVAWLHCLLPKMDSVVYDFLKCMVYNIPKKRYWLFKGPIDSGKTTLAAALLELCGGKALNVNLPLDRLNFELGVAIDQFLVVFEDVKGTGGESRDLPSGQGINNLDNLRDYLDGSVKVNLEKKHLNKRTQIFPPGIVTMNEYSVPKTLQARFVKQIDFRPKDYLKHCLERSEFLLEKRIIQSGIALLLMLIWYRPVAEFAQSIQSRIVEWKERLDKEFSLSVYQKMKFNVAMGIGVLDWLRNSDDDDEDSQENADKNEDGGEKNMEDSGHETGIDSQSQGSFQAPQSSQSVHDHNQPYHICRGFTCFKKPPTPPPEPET
Chain of Cytochrome P450 2C9 (P11712 whole entry): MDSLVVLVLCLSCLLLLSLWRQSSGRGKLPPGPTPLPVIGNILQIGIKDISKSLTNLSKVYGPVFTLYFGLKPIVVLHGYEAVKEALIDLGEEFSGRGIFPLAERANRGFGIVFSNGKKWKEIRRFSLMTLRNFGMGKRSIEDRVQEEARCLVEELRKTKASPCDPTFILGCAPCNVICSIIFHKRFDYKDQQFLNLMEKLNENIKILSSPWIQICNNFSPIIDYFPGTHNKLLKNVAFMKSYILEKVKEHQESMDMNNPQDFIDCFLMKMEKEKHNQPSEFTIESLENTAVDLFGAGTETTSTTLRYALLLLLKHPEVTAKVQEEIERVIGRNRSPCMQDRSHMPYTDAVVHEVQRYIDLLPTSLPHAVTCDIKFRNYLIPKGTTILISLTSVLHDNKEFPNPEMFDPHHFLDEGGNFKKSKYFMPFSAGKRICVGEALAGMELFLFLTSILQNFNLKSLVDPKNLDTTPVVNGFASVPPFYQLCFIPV
Chain of Cytochrome P450 3A4 (P08684 whole entry): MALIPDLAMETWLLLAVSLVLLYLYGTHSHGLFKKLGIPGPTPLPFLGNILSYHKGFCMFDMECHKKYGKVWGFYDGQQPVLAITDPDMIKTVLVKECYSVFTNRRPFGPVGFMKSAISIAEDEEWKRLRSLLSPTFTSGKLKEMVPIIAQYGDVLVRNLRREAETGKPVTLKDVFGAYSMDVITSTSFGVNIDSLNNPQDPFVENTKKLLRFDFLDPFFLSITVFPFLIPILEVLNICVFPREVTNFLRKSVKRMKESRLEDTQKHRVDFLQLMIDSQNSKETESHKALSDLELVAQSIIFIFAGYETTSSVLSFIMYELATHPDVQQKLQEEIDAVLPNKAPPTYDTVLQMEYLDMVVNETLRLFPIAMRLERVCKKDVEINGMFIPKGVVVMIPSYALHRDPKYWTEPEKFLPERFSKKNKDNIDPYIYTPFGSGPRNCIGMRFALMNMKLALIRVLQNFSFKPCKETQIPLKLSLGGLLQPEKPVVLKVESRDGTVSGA
Chain of Glyceraldehyde-3-phosphate dehydrogenase (P04406 whole entry): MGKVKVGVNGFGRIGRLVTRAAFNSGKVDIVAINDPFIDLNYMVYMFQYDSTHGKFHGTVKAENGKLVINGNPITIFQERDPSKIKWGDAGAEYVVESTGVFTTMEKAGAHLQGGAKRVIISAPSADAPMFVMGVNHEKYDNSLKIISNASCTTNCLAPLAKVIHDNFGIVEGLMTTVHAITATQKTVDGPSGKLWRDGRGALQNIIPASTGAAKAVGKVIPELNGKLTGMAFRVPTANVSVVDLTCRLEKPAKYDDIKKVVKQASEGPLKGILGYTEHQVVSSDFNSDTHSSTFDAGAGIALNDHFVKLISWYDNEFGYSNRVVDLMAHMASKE
Chain of Luciferin 4-monooxygenase (P08659 whole entry): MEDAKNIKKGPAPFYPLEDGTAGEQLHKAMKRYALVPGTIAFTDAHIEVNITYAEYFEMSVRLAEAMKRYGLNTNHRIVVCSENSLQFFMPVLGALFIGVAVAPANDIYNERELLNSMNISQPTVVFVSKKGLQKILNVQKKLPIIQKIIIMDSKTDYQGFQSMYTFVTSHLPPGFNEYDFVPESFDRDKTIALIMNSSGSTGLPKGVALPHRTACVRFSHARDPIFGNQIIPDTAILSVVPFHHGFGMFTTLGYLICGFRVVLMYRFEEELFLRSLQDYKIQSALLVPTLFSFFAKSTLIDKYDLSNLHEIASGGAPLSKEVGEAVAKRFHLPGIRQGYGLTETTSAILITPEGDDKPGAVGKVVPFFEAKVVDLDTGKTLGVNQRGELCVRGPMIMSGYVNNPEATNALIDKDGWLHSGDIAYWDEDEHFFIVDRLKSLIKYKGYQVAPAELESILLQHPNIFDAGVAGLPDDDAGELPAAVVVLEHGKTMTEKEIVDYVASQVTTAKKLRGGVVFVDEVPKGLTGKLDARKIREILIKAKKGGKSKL

In the case of `COc1cc(/C=N/N=C(\N)c2nonc2N)ccc1O`, the EC50 in data set [1] was 52.8 µM (active); in data set [2], 7.47 µM (active). For the same compound, the IC50 in data set [3] is 18.9 µM (active); in data set [4] it was 12.2 µM (active).

Consider `O=C(NCCc1ccccn1)c1ccc(COc2ccccc2)o1`, for which, in data set [5], the half-maximal effective concentration (EC50) was 4.73 µM (active).

As to `COc1ccccc1CN1CC[C@@]2(CCCN(C(=O)c3c(C)noc3C)C2)C1`, the AC50 entry in [6] is recorded as “inconclusive”.

With `COc1cccc(N2C(=O)C(Cl)=C(N3CCN(Cc4ccc5c(c4)OCO5)CC3)C2=O)c1`, the IC50 in data set [7] is > 50 µM (inconclusive).

Consider `O=C(Nc1cccc(F)c1)N1CC2(CCN(C(=O)c3cc(C(F)(F)F)cc(C(F)(F)F)c3)CC2)C1`, for which the AC50 entry in data set [6] was “inconclusive”; in [8], 39.8 µM (inconclusive).

Regarding `C=CCSc1nc(C)cc(/C=C\c2ccccc2)c1C#N`, in data set [6], the AC50 result is “inconclusive”.

Regarding `COc1cc(OC)c(C2CC(=O)N3CN(c4ccc(C)cc4)CSC3=C2C#N)cc1OC` (configuration not stated), the IC50 in data set [4] was 43.4 µM (active).

As for `COc1cc(/C=C/C(=O)N2CCN(CC(O)COc3ccccc3)CC2)cc(OC)c1OC.Cl` (configuration not stated), the AC50 result in [6] was “inconclusive”; in data set [8], 10 µM (inconclusive).

Consider `Cc1ccc(NC(=O)NCC(c2ccccc2)N(C)C)cc1` (configuration not stated), for which the EC50 in data set [5] is 0.004 µM (active).

Turning to `Cc1csc(NC(=O)CCNS(=O)(=O)c2ccc3c(c2)c(=O)n(C)c(=O)n3C)n1`, the half-maximal activity concentration (AC50) in data set [9] was 0.00631 µM (inconclusive); in data set [6], “inconclusive”.

Turning to `COc1cccc(C(=O)Oc2c(CN3CCOCC3)cc(Cl)c3cccnc23)c1`, the AC50 was 9.9 µM (active) in [10] and 4.85 µM (active) in data set [14]. Further, the EC50 is > 75 µM (inactive) in data set [11], 1.83 µM (active) in data set [12], 3.38 µM (active) in [13] and 2.48 µM (active) in data set [15].

Take `O=C(Nc1ccc(S(=O)(=O)N2CCCCCC2)cc1)c1n[nH]cc1[N+](=O)[O-]`: the half-maximal activity concentration (AC50) in data set [10] was 4.02 µM (active). The values for the EC50 in data set [16], in data set [17] and in [18] were 53.1 µM (active), 8.3 µM (active) and 6.09 µM (active), respectively.

In the case of `CN(C)c1ccc(NC(=O)C(=O)C2C(=O)Nc3ccccc32)cc1` (configuration not stated), the concentration for half-maximal inhibition (IC50) in [4] is 25.9 µM (active).

Turning to `C=CCn1c(CCNC(=O)C(C)(C)C)nc2ccccc21`, in [5], the half-maximal effective concentration (EC50) was 3.76 µM (active).

Consider `COc1ccc(C(=O)c2ccc(N3CCOCC3)c([N+](=O)[O-])c2)cc1`, for which the EC50 in [19], in [20], in [21] and in data set [22] was > 150 µM (not active) throughout.
